Measured values as given in patent US20150344466A1 (SUMITOMO CHEMICAL COMPANY, LIMITED, priority 2013, published 2015).

Columns and labels:
Type in all cases: in vivo
Spodoptera litura = experiment: Foliar spray test on Spodoptera litura on cabbage (Test Example 11); conditions: 96 h, fourth instar larvae of Spodoptera litura on cabbage, 500 ppm spray 20 ml/cup, after 4 days, read-out: controlling value
Description: On the other hand, cabbage was planted in a polyethylene cup, and grown until the third-fourth true leaf was spread. The test spray solution was sprayed to the cabbage at a ratio of 20 ml/cup. After the drug solution sprayed orn the cabbage was dried, 10 fourth instar larvae of Spodoptera litura were allowed to parasitize the cabbage. After 4 days, the number of surviving Spodoptera litura on the cabbage leaves was examined, and the controlling value was calculated according to the following equation. Controlling value (%)={1−(Cb×Tai)/([…])}×100 In the equation, the symbols represent as follows. Cb: the number of insects in a non-treated section before treatment Cai: the number of insects in a non-treated section on observation Tb: the number of insects in a treated section before treatment Tai: the number of insects in a treated section on observation

Culex pipiens pallens [1] = experiment: Larvicidal test on Culex pipiens pallens, eight days (Test Example 7); conditions: 192 h; last-instar larvae of Culex pipiens pallens; 3.5 ppm in water; eight days later; read-out: death rate
Description: 20 last-instar larvae of Culex pipiens pallens were released into a liquid to which 0.7 ml of the above test drug solution was added to 100 ml of ion-exchanged water (a concentration of the active ingredient of 3.5 ppm). Eight days later, the life and death of the Culex pipiens pallens was examined, and the death rate was calculated. The death rate was calculated by the following equation.
Death rate (%)=(Number of dead insects/Number of tested insects)×100

Culex pipiens pallens [2] = experiment: Knockdown spray test on adult Culex pipiens pallens (Test Example 4); conditions: topical, 0.25 h, active ingredient 0.1% w/v, 0.5 ml sprayed, within 15 minutes, read-out: knockdown rate of the test insects within 15 minutes
Outline: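 Ten adult mosquitoes in a gauze-covered cup inside a 46×46×70 cm chamber were sprayed with 0.5 ml of test solution from 30 cm at 0.4 kg/cm^2. The cup was removed at once, and knocked-down insects were counted at 2, 5 and 15 min; knockdown rate (%) = knocked-down/tested ×100.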

Musca domestica = experiment: Filter paper/sucrose bait death rate test on Musca domestica (Test Example 5); conditions: female imagoes of Musca domestica, 0.7 ml on filter paper, after 24 hours
Outline: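 Filter paper in a 5.5 cm cup dosed with 0.7 ml test drug solution, with 30 mg sucrose as bait. Ten female adult houseflies released and cup sealed. Dead insects counted after 24 h; death rate (%) = dead/tested × 100.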

Blattella germanica = experiment: Knockdown spray test on Blattella germanica, 0.1% w/v oil formulation (Test Example 2); conditions: topical, 0.25 h, active ingredient 0.1% w/v, 1.5 ml sprayed, within 15 minutes, read-out: knockdown rate of the test insects within 15 minutes
Outline: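 Ten German cockroaches (5 males, 5 females) in a mesh-bottomed, butter-walled container were sprayed with 1.5 ml test solution from 60 cm at 0.42 kg/cm^2 inside a chamber.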

Plutella xylostella = experiment: Foliar spray test on Plutella xylostella on cabbage (Test Example 10); conditions: 120 h, third instar larvae of Plutella xylostella on cabbage, 500 ppm spray 20 ml/cup, after five days, read-out: controlling value
Outline: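 Cabbage at the third–fourth true-leaf stage sprayed with test solution at 20 ml/cup, dried, then infested with 10 third-instar larvae. Insects counted after five days; controlling value (%) calculated from treated and non-treated counts before treatment and at observation.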

O=C(NCC1CCOC1)c1cc(Cc2ccc(OC(F)(F)F)cc2)on1 (stereo not shown) [(315), N-(tetrahydrofuran-3-ylmethyl)-5-(4-trifluoromethoxybenzyl) isoxazole-3-carboxamide]
pest or weed control at 500 ppm (Spodoptera litura): ≥ 80% | pest or weed control at 3.5 ppm (Culex pipiens pallens [1]): ≥ 90% | pest or weed control at 0.1 % strength (Culex pipiens pallens [2]): ≥ 80% | pest or weed control at 500 ppm (Musca domestica): ≥ 90%

O=C(NCC1CCOC1)c1cc(COCc2ccc(Cl)cc2F)on1 (stereo not shown) [(260), N-(tetrahydrofuran-3-ylmethyl)-5-(4-chloro-2-fluorobenzyloxymethyl)isoxazole-3-carboxamide]
pest or weed control at 500 ppm (Spodoptera litura): ≥ 80% | pest or weed control at 3.5 ppm (Culex pipiens pallens [1]): ≥ 90% | pest or weed control at 0.1 % strength (Culex pipiens pallens [2]): ≥ 80% | pest or weed control at 0.1 % strength (Blattella germanica): ≥ 80% | pest or weed control at 500 ppm (Musca domestica): ≥ 90%

O=C(NCC1CCOCC1)c1cc(COCc2cccc(Cl)c2)on1 [(69), N-(tetrahydropyran-4-ylmethyl)-5-(3-chlorobenzyloxymethyl)isoxazole-3-carboxamide]
pest or weed control at 500 ppm (Spodoptera litura): ≥ 80% | pest or weed control at 500 ppm (Plutella xylostella): ≥ 90% | pest or weed control at 0.1 % strength (Culex pipiens pallens [2]): ≥ 80% | pest or weed control at 0.1 % strength (Blattella germanica): ≥ 80% | pest or weed control at 500 ppm (Musca domestica): ≥ 90%

O=C(NCC1CCOCC1)c1cc(COCc2cccc(OC(F)(F)F)c2)on1 [(79)]
pest or weed control at 500 ppm (Spodoptera litura): ≥ 80% | pest or weed control at 500 ppm (Plutella xylostella): ≥ 90% | pest or weed control at 0.1 % strength (Culex pipiens pallens [2]): ≥ 80% | pest or weed control at 0.1 % strength (Blattella germanica): ≥ 80% | pest or weed control at 500 ppm (Musca domestica): ≥ 90%

O=C(NCC1CCOCC1)c1cc(COCc2cccc(Br)c2)on1 [(77), N-(tetrahydropyran-4-ylmethyl)-5-(3-bromobenzyloxymethyl)isoxazole-3-carboxamide]
pest or weed control at 500 ppm (Spodoptera litura): ≥ 80% | pest or weed control at 3.5 ppm (Culex pipiens pallens [1]): ≥ 90% | pest or weed control at 0.1 % strength (Culex pipiens pallens [2]): ≥ 80% | pest or weed control at 0.1 % strength (Blattella germanica): ≥ 80%

O=C(NCC1CCOC1)c1cc(COCc2ccc3ccccc3c2F)on1 (stereo not shown) [(258), N-(tetrahydrofuran-3-ylmethyl)-5-(1-fluoro-2-naphthylmethoxymethyl)isoxazole-3-carboxamide]
pest or weed control at 500 ppm (Spodoptera litura): ≥ 80% | pest or weed control at 3.5 ppm (Culex pipiens pallens [1]): ≥ 90% | pest or weed control at 500 ppm (Plutella xylostella): ≥ 90% | pest or weed control at 0.1 % strength (Culex pipiens pallens [2]): ≥ 80% | pest or weed control at 0.1 % strength (Blattella germanica): ≥ 80%

O=C(NCC1CCOC1)c1cc(Cc2ccc(F)c(F)c2)on1 (stereo not shown) [(306), N-(tetrahydrofuran-3-ylmethyl)-5-(3,4-difluorobenzyl)isoxazole-3-carboxamide]
pest or weed control at 500 ppm (Spodoptera litura): ≥ 80% | pest or weed control at 500 ppm (Plutella xylostella): ≥ 90% | pest or weed control at 0.1 % strength (Culex pipiens pallens [2]): ≥ 80% | pest or weed control at 0.1 % strength (Blattella germanica): ≥ 80% | pest or weed control at 500 ppm (Musca domestica): ≥ 90%

O=C(NCC1CCOC1)c1cc(COCc2cccc(Br)c2)on1 (stereo not shown) [(76), N-(tetrahydrofuran-3-ylmethyl)-5-[(3-bromobenzyl)oxymethyl]isoxazole-3-carboxamide]
pest or weed control at 500 ppm (Spodoptera litura): ≥ 80% | pest or weed control at 3.5 ppm (Culex pipiens pallens [1]): ≥ 90% | pest or weed control at 500 ppm (Plutella xylostella): ≥ 90% | pest or weed control at 0.1 % strength (Culex pipiens pallens [2]): ≥ 80% | pest or weed control at 0.1 % strength (Blattella germanica): ≥ 80% | pest or weed control at 500 ppm (Musca domestica): ≥ 90%

O=C(NCC1CCOC1)c1cc(COc2cccc(C(F)(F)F)c2)on1 (stereo not shown) [(198), N-(tetrahydrofuran-3-ylmethyl)-5-(3-trifluoromethylphenoxymethyl)isoxazole-3-carboxamide]
pest or weed control at 500 ppm (Spodoptera litura): ≥ 80% | pest or weed control at 3.5 ppm (Culex pipiens pallens [1]): ≥ 90% | pest or weed control at 0.1 % strength (Culex pipiens pallens [2]): ≥ 80% | pest or weed control at 0.1 % strength (Blattella germanica): ≥ 80%
